In one assay the target is Tryptase (Homo sapiens, UniProt Q9BZJ3+Q15661+Q9NRR2). Briefly: Inhibitory activity against human tryptase.
In assay [1] the target is T1, Serine protease 1 (Bos taurus, UniProt P00760).
T1 sequence (P00760 whole entry): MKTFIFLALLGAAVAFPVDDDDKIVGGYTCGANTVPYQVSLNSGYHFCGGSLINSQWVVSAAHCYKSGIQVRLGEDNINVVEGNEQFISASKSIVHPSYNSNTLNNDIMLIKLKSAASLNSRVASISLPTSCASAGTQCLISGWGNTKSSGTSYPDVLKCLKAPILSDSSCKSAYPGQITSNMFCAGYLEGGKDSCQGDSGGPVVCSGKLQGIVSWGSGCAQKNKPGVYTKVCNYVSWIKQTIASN
In words: Inhibitory activity against bovine trypsin.

Assay [2] has as its target T2, Serine protease 1 (Bos taurus) (UniProt P00760).
T2 sequence (whole entry): T1 sequence (P00760 whole entry)
Briefly: Inhibition of bovine trypsin at 0.2 uM.

The target in assay [3] is Tissue-type plasminogen activator (Homo sapiens, UniProt P00750). In words: Inhibitory activity against tissue type plasminogen activator.
Assay [4] addresses Serine protease 1 (Homo sapiens, UniProt P07477). Briefly: Inhibitory activity against trypsin.
A further assay addresses Plasminogen (Rattus norvegicus, UniProt Q01177). In words: Inhibitory activity against plasmin.

Chain of Tissue-type plasminogen activator (P00750 whole entry): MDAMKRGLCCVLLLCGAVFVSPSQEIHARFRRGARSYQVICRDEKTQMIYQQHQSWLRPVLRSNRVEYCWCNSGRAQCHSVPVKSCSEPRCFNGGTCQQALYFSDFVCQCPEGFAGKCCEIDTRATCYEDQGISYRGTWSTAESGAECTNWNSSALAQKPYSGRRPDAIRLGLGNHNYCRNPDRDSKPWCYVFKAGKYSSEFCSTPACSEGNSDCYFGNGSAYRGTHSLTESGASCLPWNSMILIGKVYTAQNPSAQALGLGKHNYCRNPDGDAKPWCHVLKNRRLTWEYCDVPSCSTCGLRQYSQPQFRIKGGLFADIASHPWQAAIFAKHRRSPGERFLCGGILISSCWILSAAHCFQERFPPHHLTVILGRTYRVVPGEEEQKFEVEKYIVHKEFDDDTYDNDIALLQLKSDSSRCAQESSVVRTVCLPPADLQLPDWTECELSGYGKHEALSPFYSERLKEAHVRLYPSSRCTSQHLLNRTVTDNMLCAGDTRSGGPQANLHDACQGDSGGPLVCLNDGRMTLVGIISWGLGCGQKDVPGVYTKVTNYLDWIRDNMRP
Chain of Serine protease 1 (Homo sapiens, UniProt P07477) (P07477 whole entry): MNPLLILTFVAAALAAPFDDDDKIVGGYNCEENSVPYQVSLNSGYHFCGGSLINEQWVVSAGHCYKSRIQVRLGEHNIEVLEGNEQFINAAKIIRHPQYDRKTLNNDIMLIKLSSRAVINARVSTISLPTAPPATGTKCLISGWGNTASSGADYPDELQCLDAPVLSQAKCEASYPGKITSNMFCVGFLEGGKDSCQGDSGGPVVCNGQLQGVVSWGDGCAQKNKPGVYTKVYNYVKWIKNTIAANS
Chain of Plasminogen (Q01177 97-581 limits assumed): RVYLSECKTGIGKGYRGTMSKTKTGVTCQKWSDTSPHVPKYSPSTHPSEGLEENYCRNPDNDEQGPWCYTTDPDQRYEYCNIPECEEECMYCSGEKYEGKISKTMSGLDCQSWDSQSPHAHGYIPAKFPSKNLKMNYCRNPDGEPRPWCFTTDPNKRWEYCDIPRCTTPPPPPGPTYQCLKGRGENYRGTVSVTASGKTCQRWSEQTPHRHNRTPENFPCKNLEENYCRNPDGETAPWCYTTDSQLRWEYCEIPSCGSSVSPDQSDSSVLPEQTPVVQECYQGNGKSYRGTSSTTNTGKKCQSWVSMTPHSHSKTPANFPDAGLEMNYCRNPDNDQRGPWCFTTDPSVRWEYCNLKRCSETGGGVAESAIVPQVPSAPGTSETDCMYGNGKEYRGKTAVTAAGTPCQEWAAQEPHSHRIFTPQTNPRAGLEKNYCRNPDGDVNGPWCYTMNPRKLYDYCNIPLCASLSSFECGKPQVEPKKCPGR
Chain of Plasminogen (Q01177 582-812 limits assumed): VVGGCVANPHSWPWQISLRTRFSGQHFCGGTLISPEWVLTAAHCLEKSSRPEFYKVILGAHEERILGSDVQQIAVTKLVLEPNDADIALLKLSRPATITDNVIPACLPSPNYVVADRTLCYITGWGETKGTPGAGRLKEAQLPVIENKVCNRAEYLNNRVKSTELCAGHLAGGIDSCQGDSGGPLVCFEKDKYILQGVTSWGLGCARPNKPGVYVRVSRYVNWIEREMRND

For the compound `N=C(N)N1CCC[C@H](C[C@H]2C(=O)N(C(=O)N3CCN(C(=O)CCCCCc4ccccc4)CC3)[C@@H]2C(=O)O)C1`, the IC50 against Tryptase was 0.0017 µM; at Serine protease 1 [1] it was 5.76 µM.
With `CC(=O)Nc1ccsc1C(=O)N1CCN(C(=O)N2C(=O)[C@H](CC3CCNCC3)C2C(=O)O)CC1` (single isomer, unassigned), in assay [2], the inhibition worked out at 68%. The IC50 against Tryptase was 0.19 µM.
`O=C(O)C1[C@@H](CC2CCNCC2)C(=O)N1C(=O)N1CCN(C(=O)Cc2ccc(Oc3ccccc3)cc2)CC1` (single isomer, unassigned): the IC50 against Tryptase was found to be 0.005 µM; on Serine protease 1 [1], 0.95 µM.
Turning to `O=C(O)C1[C@@H](CC2CCNCC2)C(=O)N1C(=O)N1CCN(C(=O)Cc2ccc3c(c2)CCCC3)CC1` (single isomer, unassigned), the inhibition in assay [2] worked out at 18%. In addition, the IC50 at Tryptase stood at 0.03 µM.
`O=C(O)C1[C@@H](CC2CCNCC2)C(=O)N1C(=O)N1CCN(C(=O)CCCCCc2ccc3ccccc3c2)CC1` (single isomer, unassigned): the values for the IC50 against Tryptase and against Serine protease 1 [1] were 0.001 µM and 0.32 µM, respectively.
For the compound `COc1cccc(CCC(=O)N2CCN(C(=O)N3C(=O)[C@H](CC4CCNCC4)C3C(=O)O)CC2)c1` (single isomer, unassigned), the IC50 came out at 0.014 µM at Tryptase and 0.81 µM at Serine protease 1 [1].
For the compound `O=C(O)C1[C@@H](CC2CCNCC2)C(=O)N1C(=O)N1CCN(C(=O)Cc2cccc(Oc3ccccc3)c2)CC1` (single isomer, unassigned), the IC50 turned out to be 0.017 µM on Tryptase and 0.97 µM at Serine protease 1 [1].
For `O=C(O)C1[C@@H](CC2CCNCC2)C(=O)N1C(=O)N1CCN(C(=O)CCCCc2ccccc2)CC1` (single isomer, unassigned), the results for the IC50 at Tryptase and against Serine protease 1 [1] were 0.006 µM and 0.81 µM, respectively.
As to `O=C(O)C1[C@@H](CC2CCNCC2)C(=O)N1C(=O)N1CCN(C(=O)c2ccccc2-c2ccccc2)CC1` (single isomer, unassigned), the inhibition in assay [2] stood at 46%. The same compound registered an IC50 against Tryptase of 0.042 µM.
With `O=C(O)C1[C@@H](CC2CCNCC2)C(=O)N1C(=O)N1CCN(C(=O)c2cc3ccccc3o2)CC1` (single isomer, unassigned), the inhibition in assay [2] is 89%. Moreover, the IC50 against Tryptase is 0.021 µM.
On to `Cc1onc(-c2ccccc2)c1C(=O)N1CCN(C(=O)N2C(=O)[C@H](CC3CCNCC3)C2C(=O)O)CC1` (single isomer, unassigned), for which, in assay [2], the inhibition was determined as 31%. At Tryptase, this compound showed an IC50 of 0.29 µM.
`O=C(O)C1[C@@H](CC2CCNCC2)C(=O)N1C(=O)N1CCN(C(=O)c2ccccc2CCc2ccccc2)CC1` (single isomer, unassigned) yielded an inhibition in assay [2] of 60%. This compound also came in with an IC50 on Tryptase of 0.14 µM.
Turning to `O=C(O)C1[C@@H](CC2CCNCC2)C(=O)N1C(=O)N1CCN(C(=O)CCCCCCc2ccccc2)CC1` (single isomer, unassigned), the IC50 stood at 0.005 µM against Tryptase and 1.3 µM against Serine protease 1 [1].
For `CC1=NN(c2ccc(C(=O)N3CCN(C(=O)N4C(=O)[C@H](CC5CCNCC5)C4C(=O)O)CC3)cc2)C(=O)C1` (single isomer, unassigned), the inhibition in assay [2] stood at 91%. For the same compound, the IC50 against Tryptase came out at 0.38 µM.
The matching figures for `O=C(O)C1[C@@H](CC2CCNCC2)C(=O)N1C(=O)N1CCN(C(=O)CCCC2CCCCC2)CC1` (single isomer, unassigned): 40% and 0.024 µM.
Take `O=C(O)C1[C@@H](CC2CCNCC2)C(=O)N1C(=O)N1CCN(C(=O)c2cccc(Oc3ccccc3)c2)CC1` (single isomer, unassigned): the inhibition in assay [2] is 78%. On Tryptase, this compound showed an IC50 of 0.015 µM.
Take `Cc1cccc(CCC(=O)N2CCN(C(=O)N3C(=O)[C@H](CC4CCNCC4)C3C(=O)O)CC2)c1` (single isomer, unassigned): the IC50 against Tryptase turned out to be 0.013 µM; at Serine protease 1 [1], 1.2 µM.
Consider `O=C(O)C1[C@@H](CC2CCNCC2)C(=O)N1C(=O)N1CCN(C(=O)c2ccc(Oc3ccccc3)cc2)CC1` (single isomer, unassigned), for which the results for the IC50 against Tryptase and on Serine protease 1 [1] were 0.007 µM and 0.14 µM, respectively.
Take `O=C(NCCCC(=O)N1CCN(C(=O)N2C(=O)[C@H](CC3CCNCC3)C2C(=O)O)CC1)OCc1ccccc1` (single isomer, unassigned): the IC50 turned out to be 0.006 µM against Tryptase and 1.2 µM on Serine protease 1 [1].
The matching figures for `Cc1ccc(C2=CN=C(CCC(=O)N3CCN(C(=O)N4C(=O)[C@H](CC5CCNCC5)C4C(=O)O)CC3)C2=O)cc1` (single isomer, unassigned): 0.005 µM and 1.8 µM.
On to `O=C(O)C1[C@@H](CC2CCNCC2)C(=O)N1C(=O)N1CCN(C(=O)CCCCCCCc2ccccc2)CC1` (single isomer, unassigned), for which the values for the IC50 against Tryptase and at Serine protease 1 [1] were 0.005 µM and 1.3 µM, respectively.
Regarding `O=C(CCC(=O)N1CCN(C(=O)N2C(=O)[C@H](CC3CCNCC3)C2C(=O)O)CC1)NCCc1ccccc1` (single isomer, unassigned), the IC50 came out at 0.017 µM at Tryptase and 1.9 µM against Serine protease 1 [1].
On to `O=C1CC[C@@H](C(=O)N2CCN(C(=O)N3C(=O)[C@H](CC4CCNCC4)C3C(=O)O)CC2)N1` (single isomer, unassigned), for which the inhibition in assay [2] was found to be 69%. The same compound showed an IC50 against Tryptase of 0.17 µM.
On to `O=C(O)C1[C@@H](CC2CCNCC2)C(=O)N1C(=O)N1CCN(C(=O)c2ccc(CCCc3ccccc3)cc2)CC1` (single isomer, unassigned), for which the half-inhibitory concentration (IC50) on Tryptase came to 0.006 µM; at Serine protease 1 [1], 0.31 µM.
For the compound `O=C(O)C1[C@@H](CC2CCNCC2)C(=O)N1C(=O)N1CCN(C(=O)CCCc2ccc3ccccc3c2)CC1` (single isomer, unassigned), the IC50 came out at 0.01 µM at Tryptase and 0.6 µM against Serine protease 1 [1].
Consider `O=C(O)C1[C@@H](CC2CCNCC2)C(=O)N1C(=O)N1CCN(C(=O)CCCc2nc(-c3ccc(Cl)cc3)no2)CC1` (single isomer, unassigned), for which the figures for the IC50 against Tryptase and on Serine protease 1 [1] were 0.005 µM and 0.15 µM, respectively.
In the case of `O=C(O)C1[C@@H](CC2CCNCC2)C(=O)N1C(=O)N1CCN(C(=O)c2ccc(OCc3ccccc3)cc2)CC1` (single isomer, unassigned), the IC50 on Tryptase is 0.004 µM; against Serine protease 1 [1], 0.12 µM.
`O=C(CCCC(=O)N1CCN(C(=O)N2C(=O)[C@H](CC3CCNCC3)C2C(=O)O)CC1)Nc1ccccc1` (single isomer, unassigned): the IC50 stood at 0.012 µM against Tryptase and 1.35 µM on Serine protease 1 [1].
On to `CC(C)(C)NC(=O)N1CCN(C(=O)N2C(=O)[C@H](CCCN=C(N)N)C2C(=O)O)CC1` (single isomer, unassigned), for which the IC50 in assay [3] was above 8.25 µM; against Serine protease 1 [4], 0.0045 µM; against Serine protease 1 [1], 0.072 µM; against Plasminogen, 0.43 µM.
As to `O=C(O)C1[C@@H](CC2CCNCC2)C(=O)N1C(=O)N1CCN(C(=O)Cc2ccc(-c3ccccc3)cc2)CC1` (single isomer, unassigned), the IC50 was found to be 0.005 µM on Tryptase and 0.74 µM on Serine protease 1 [1].
Take `O=C(O)C1[C@@H](CC2CCNCC2)C(=O)N1C(=O)N1CCN(C(=O)c2cc3cc(F)ccc3[nH]2)CC1` (single isomer, unassigned): the inhibition in assay [2] amounted to 63%. The IC50 on Tryptase was determined as 0.45 µM.
Regarding `O=C(O)C1[C@@H](CC2CCNCC2)C(=O)N1C(=O)N1CCN(C(=O)c2ccccc2Oc2ccccc2)CC1` (single isomer, unassigned), in assay [2], the inhibition came to 2%. Besides, the IC50 against Tryptase came to 0.12 µM.
In the case of `O=C(O)C1[C@@H](CC2CCNCC2)C(=O)N1C(=O)N1CCN(C(=O)c2ccc3ccccc3n2)CC1` (single isomer, unassigned), the inhibition in assay [2] was determined as 51%. For the same compound, the IC50 against Tryptase turned out to be 0.11 µM.
Compound `O=C(O)C1[C@@H](CC2CCNCC2)C(=O)N1C(=O)N1CCN(C(=O)Cc2ccc3ccccc3c2)CC1` (single isomer, unassigned) gave an inhibition in assay [2] of 22%. This compound displayed an IC50 on Tryptase of 0.07 µM.
As to `O=C(O)C1[C@@H](CC2CCNCC2)C(=O)N1C(=O)N1CCN(C(=O)Cc2ccc(CCCc3ccccc3)cc2)CC1` (single isomer, unassigned), the IC50 at Tryptase was 0.009 µM; at Serine protease 1 [1] it was 1.58 µM.
As for `O=C(O)C1[C@@H](CC2CCNCC2)C(=O)N1C(=O)N1CCN(C(=O)CCCCCc2cccc3ccccc23)CC1` (single isomer, unassigned), the IC50 worked out at 0.001 µM on Tryptase and 0.24 µM against Serine protease 1 [1].
Take `CCCCCCc1ccc(-c2ccc(C(=O)N3CCN(C(=O)N4C(=O)[C@H](CC5CCNCC5)C4C(=O)O)CC3)cc2)cc1` (single isomer, unassigned): the figures for the IC50 against Tryptase and against Serine protease 1 [1] were 0.12 µM and 1.2 µM, respectively.
The matching figures for `O=C(O)C1[C@@H](CC2CCNCC2)C(=O)N1C(=O)N1CCN(C(=O)CCCCCCc2cccc3ccccc23)CC1` (single isomer, unassigned): 0.001 µM and 0.32 µM.
As to `O=C(O)C1[C@@H](CC2CCNCC2)C(=O)N1C(=O)N1CCN(C(=O)c2ccc(-c3ccccc3)cc2)CC1` (single isomer, unassigned), the IC50 at Tryptase was 0.006 µM; on Serine protease 1 [1] it was 0.12 µM.
In assay [2], `O=C(O)C1[C@@H](CC2CCNCC2)C(=O)N1C(=O)N1CCN(C(=O)c2ccc(C3CCCCC3)cc2)CC1` (single isomer, unassigned) displayed an inhibition of 76%. Moreover, on Tryptase, the IC50 is 0.04 µM.
`O=C(O)C1[C@@H](CC2CCNCC2)C(=O)N1C(=O)N1CCN(C(=O)Cc2ccc3c(c2)OCO3)CC1` (single isomer, unassigned): the inhibition in assay [2] was 19%. In addition, the IC50 at Tryptase came to 0.055 µM.
In the case of `O=C(O)C1[C@@H](CC2CCNCC2)C(=O)N1C(=O)N1CCN(C(=O)c2ccc3ccccc3c2)CC1` (single isomer, unassigned), in assay [2], the inhibition is 72%.

As a reminder, the IC50 is the point on the concentration scale where inhibition reaches its midpoint. Lower therefore signals higher potency. What is called inhibition is the change of the read-out against control, counted positive when it falls. Low values mean a weak effect, high ones a strong effect.

These data come from ChEMBL document CHEMBL1147563, “Solid-phase synthesis and SAR of 4-carboxy-2-azetidinone mechanism-based tryptase inhibitors” (Bioorg Med Chem Lett, 2004).
